Experimental data published in ChEMBL document CHEMBL1201862, “PubChem BioAssay data set” (2004).
Active and inactive are the calls of the source.

Assays:
[1] = target: T1, Heat shock factor protein 1 (Mus musculus, UniProt P38532); test: decrease of HSF1-responsive luciferase luminescence – cell-based, NIH3T3, dose retest, confirmation (AID 2382); format: functional;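 further: NIH3T3 fibroblasts with HSF1-driven luciferase reporter stressed by proteasome inhibitor MG132; luminescence from HSF1-driven luciferase expression after 8 hours of MG132 stress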
T1 sequence (P38532 whole entry): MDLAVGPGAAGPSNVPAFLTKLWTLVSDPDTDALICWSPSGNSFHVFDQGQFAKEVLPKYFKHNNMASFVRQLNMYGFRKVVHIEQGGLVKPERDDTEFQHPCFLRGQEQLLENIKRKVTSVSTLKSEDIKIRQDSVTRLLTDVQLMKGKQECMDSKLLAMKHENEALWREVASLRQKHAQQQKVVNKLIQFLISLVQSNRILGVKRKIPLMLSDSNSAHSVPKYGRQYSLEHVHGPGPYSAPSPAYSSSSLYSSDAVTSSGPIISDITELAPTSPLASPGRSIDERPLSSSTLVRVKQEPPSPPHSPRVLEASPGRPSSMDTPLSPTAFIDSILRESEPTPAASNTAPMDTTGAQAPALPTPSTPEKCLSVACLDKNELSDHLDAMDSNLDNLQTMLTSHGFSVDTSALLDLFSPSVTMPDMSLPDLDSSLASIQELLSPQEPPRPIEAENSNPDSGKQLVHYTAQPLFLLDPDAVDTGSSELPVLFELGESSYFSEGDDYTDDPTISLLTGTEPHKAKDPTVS

[2] = target: Cytochrome P450 2C19 (Homo sapiens, UniProt P33261); test: Cytochrome panel assay with activity outcomes. Panel member name: p450-cyp2c19 Compounds with AC50 equal or less than 10 uM are considered active; format: functional; conditions: read-out: AC50
[3] = target: Cytochrome P450 2D6 (Homo sapiens, UniProt P10635);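 further: CYP2D6 member of a cytochrome P450 panel assay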
[4] = luciferase reporter signal suppression in cells – H4 neuroglioma cells, luminescence, dose response (AID 1990); format: functional, cell-based
[5] = alpha-synuclein stem-loop luciferase translation blockers – H4 neuroglioma cells, luminescence, confirmation (AID 1988); format: functional, cell-based
[6] = Trypanosoma cruzi growth suppression in host cells – NIH3T3 host cells, beta-gal luminescence, confirmation (AID 2044); format: functional, cell-based;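 further: intracellular parasites grown in NIH/3T3 mouse fibroblasts as host cells; luminescent beta-galactosidase reporter signal from transgenic T. cruzi replicating inside host cells; inhibitors lower the luminescence signal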
[7] = NIH3T3 cell viability loss – ATP luminescence, mouse fibroblasts, counter-screen, dose response (AID 2010); format: functional, cell-based;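 further: cells exposed to compound for about 90 hours before reading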
[8] = target: T2, Polyadenylate-binding protein 1 (Homo sapiens, UniProt P11940); test: MLLE binding blockers, Cy5 peptide tracer – biochemical, fluorescence polarization, Cy5-PAM2 peptide, secondary, miRNA deadenylation inhibitor project, dose response (AID 602260); format: functional; conditions: read-out: IC50_Mean
[9] = target: T2, Polyadenylate-binding protein 1; test: MLLE domain peptide-binding blockers, IC50 – biochemical, fluorescence polarization, FITC-PAM2 peptide, dose response (AID 602259); format: functional; conditions: read-out: IC50_Mean
[10] = Luminescence Cell-Based Dose Retest to Confirm Inhibitors of Cancer Stem Cells. [Related pubchem assays (depositor defined):AID2717, AID2721]; format: functional; conditions: Homo sapiens
[11] = test system: Streptococcus sp. 'group A'; test: Streptococcus pyogenes SK(-)GAS viability under kanamycin – luminescence, BacTiterGlo, confirmation, counter-screen for streptokinase expression inhibitor project, dose response (AID 1900); format: functional, organism-based
[12] = target: T3, Streptokinase A (Streptococcus pyogenes serotype M1, UniProt P10520); test: viability-normalized secreted streptokinase activity reduction – plasminogen activation absorbance, OD405, dose response (AID 1914); format: functional, Streptococcus pyogenes M1 GAS;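 further: secreted streptokinase activity via plasminogen activation per viability signal from cell pellet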
T3 sequence (P10520 whole entry): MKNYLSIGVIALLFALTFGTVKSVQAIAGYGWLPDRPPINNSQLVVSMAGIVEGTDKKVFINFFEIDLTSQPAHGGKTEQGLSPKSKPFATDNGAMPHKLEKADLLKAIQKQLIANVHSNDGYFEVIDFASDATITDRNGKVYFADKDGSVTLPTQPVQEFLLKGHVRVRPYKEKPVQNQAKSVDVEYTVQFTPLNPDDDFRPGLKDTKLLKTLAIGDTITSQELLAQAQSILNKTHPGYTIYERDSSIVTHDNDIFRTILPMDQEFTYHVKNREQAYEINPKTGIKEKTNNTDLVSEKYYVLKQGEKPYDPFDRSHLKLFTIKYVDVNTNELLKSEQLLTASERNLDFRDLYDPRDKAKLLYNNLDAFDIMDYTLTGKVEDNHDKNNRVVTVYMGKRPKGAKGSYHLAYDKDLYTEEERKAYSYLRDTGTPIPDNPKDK

[13] = test system: Streptococcus; test: GAS UMAA2166 growth inhibition – luminescence, BacTiterGlo, counter-screen for streptokinase expression inhibitor project, dose response (AID 1915); format: functional, organism-based;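 further: potency for reduction of bacterial viability or growth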
[14] = target: Cytochrome P450 3A4 (Homo sapiens, UniProt P08684);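 further: CYP3A4 tested as one member of a cytochrome P450 panel screen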
[15] = target: T4, Rac GTPase-activating protein 1 (Homo sapiens, UniProt Q9H0H5); test: blockers of MgcRacGAP-driven Rac1 GTP hydrolysis – biochemical, ADP Hunter fluorescence, primary and confirmatory, confirmation (AID 624330); format: functional
T4 sequence (Q9H0H5 whole entry): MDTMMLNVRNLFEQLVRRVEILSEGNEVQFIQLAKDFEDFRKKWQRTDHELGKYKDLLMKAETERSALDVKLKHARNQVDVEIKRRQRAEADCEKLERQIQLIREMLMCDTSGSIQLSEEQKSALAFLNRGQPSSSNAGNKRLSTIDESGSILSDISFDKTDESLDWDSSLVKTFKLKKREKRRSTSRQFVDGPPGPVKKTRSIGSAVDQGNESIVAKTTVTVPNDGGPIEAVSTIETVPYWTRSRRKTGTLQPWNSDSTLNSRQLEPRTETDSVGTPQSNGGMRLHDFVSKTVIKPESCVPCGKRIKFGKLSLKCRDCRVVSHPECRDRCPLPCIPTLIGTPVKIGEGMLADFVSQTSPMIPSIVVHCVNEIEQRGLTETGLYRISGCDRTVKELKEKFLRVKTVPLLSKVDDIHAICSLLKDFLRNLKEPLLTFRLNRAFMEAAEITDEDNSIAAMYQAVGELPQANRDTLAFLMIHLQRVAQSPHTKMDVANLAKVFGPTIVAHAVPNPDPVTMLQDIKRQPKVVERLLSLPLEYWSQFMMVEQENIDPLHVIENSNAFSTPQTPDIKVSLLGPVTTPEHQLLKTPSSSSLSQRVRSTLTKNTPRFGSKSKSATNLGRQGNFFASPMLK

[16] = target: Cytochrome P450 2C9 (Homo sapiens, UniProt P11712)
Sequence of Cytochrome P450 2C9 (P11712 whole entry): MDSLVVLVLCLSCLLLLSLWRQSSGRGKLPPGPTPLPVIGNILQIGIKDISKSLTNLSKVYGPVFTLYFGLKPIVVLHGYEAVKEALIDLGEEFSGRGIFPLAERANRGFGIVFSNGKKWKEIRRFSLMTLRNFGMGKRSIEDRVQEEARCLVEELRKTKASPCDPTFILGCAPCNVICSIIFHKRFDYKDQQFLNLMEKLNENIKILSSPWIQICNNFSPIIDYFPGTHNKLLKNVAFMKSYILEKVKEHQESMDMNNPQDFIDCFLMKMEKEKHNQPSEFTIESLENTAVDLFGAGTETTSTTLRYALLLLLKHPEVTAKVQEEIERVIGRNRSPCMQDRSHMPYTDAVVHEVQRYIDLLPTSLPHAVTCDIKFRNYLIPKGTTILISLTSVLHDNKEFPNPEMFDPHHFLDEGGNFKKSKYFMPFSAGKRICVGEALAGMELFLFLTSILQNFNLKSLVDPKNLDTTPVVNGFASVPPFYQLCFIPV

T2 sequence (P11940 whole entry, the tested form may be a part): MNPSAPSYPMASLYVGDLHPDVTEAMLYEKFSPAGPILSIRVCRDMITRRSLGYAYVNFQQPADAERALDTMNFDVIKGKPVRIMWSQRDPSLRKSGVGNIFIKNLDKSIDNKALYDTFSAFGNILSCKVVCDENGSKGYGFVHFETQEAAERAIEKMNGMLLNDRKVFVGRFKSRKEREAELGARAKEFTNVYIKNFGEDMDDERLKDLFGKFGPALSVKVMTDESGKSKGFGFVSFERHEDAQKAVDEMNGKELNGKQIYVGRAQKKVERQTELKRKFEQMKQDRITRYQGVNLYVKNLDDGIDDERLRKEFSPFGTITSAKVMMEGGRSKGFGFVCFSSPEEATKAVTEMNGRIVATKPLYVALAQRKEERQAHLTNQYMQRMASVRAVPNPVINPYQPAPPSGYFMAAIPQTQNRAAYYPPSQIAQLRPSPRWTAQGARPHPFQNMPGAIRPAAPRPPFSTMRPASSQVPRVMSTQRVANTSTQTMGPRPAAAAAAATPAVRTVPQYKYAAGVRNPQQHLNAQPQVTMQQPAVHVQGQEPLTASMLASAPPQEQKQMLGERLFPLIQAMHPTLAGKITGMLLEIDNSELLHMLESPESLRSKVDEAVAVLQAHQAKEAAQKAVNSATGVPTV
Sequence of Cytochrome P450 2D6 (P10635 whole entry): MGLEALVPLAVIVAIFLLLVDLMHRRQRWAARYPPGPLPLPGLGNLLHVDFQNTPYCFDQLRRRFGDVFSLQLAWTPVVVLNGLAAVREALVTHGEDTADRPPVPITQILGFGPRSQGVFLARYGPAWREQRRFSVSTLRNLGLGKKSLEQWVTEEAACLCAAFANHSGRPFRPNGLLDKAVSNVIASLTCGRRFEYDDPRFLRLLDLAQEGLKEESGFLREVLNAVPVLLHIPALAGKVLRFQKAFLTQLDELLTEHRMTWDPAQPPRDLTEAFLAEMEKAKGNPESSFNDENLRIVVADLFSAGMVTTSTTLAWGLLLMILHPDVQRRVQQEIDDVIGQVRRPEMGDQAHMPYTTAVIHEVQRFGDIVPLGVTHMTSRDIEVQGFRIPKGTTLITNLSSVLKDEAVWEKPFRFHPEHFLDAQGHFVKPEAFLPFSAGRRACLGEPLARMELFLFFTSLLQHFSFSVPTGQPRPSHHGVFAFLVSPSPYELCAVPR
Sequence of Cytochrome P450 3A4 (P08684 whole entry): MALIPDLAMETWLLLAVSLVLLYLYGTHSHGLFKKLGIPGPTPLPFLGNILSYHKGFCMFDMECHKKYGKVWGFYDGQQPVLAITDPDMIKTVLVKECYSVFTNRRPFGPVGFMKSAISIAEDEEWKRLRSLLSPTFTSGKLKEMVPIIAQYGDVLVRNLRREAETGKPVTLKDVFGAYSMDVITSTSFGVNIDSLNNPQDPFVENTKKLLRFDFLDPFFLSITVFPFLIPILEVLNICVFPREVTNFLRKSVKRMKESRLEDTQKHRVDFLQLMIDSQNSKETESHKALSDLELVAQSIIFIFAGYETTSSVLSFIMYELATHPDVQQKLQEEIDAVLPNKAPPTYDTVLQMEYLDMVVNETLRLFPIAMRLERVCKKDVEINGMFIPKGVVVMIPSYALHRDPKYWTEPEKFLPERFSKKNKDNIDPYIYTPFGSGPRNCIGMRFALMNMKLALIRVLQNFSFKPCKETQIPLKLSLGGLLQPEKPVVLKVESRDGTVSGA
Sequence of Cytochrome P450 2C19 (P33261 whole entry): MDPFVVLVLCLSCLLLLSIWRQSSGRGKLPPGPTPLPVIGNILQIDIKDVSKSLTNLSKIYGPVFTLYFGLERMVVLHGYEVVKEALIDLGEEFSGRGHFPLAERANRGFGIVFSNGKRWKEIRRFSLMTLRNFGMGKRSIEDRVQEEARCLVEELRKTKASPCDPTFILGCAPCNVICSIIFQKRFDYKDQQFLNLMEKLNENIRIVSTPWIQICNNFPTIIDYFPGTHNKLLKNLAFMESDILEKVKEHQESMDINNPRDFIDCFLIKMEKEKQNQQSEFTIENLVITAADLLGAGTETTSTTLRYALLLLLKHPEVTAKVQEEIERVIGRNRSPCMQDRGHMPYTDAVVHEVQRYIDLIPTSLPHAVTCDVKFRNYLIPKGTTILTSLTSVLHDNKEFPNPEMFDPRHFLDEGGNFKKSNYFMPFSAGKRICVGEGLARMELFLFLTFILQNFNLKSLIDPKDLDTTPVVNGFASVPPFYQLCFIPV

Compound: CCN(c1ccccc1)S(=O)(=O)c1c[nH]cn1
- EC50 [1]: > 195 µM (not active)

Compound: CS(=O)(=O)N1CCN(c2ccccc2NC(=O)c2ccc(Br)o2)CC1
- AC50 [2]: 39.8 µM (inconclusive)
- AC50 [3]: 22.4 µM (inconclusive)

Compound: COc1cccc2sc(Nc3nc(-c4ccncc4)cs3)nc12
- EC50 [4]: 3.2 µM (active)
- EC50 [5]: 0.601 µM (active)
- EC50 [6]: 2.41 µM (active)
- EC50 [7]: 3.65 µM (active)

Compound: CCOC(=O)C(CC)Sc1nc2c(c(=O)[nH]c(=O)n2C)n1CCc1ccccc1 (stereo unspecified)
- IC50 [8]: > 66 µM (inactive)
- IC50 [9]: > 66 µM (inactive)

Compound: COc1cc2sc(-c3ccccc3OC)c(-c3ccc(O)cc3)c2cc1OC
- AC50 [10]: 2.32 µM (active)

Compound: c1ccc2nc(C3=NCCN3)ccc2c1
- AC50 [3]: 20 µM (inconclusive)

Compound: O=C(Nc1ccc(OC(F)F)c(Cl)c1)Nc1ccc2c(c1)OCO2
- AC50 [10]: 2.04 µM (active)

Compound: C=C(C)c1cccc(C(C)(C)NC(=O)Nc2cc(C)ccc2OC)c1
- AC50 [3]: 12.6 µM (inconclusive)

Compound: c1ccc(Cc2nn3c(-c4ccncc4)nnc3s2)cc1
- IC50 [8]: > 66 µM (inactive)
- IC50 [9]: > 66 µM (inactive)

Compound: C1CC2CN(c3nc4nonc4nc3N3CCSCC3)CCN2C1 (stereo unspecified)
- IC50 [8]: > 66 µM (inactive)
- IC50 [9]: > 66 µM (inactive)

Compound: COCC(=O)N1CCC2(CCCN(c3ncccn3)C2)CC1
- AC50 [3]: 20 µM (inconclusive)

Compound: Nc1ccc(N=Nc2ccccc2)c2ccccc12
- EC50 [11]: 8.03 µM (active)
- EC50 [12]: > 150 µM (not active)
- EC50 [13]: 9.13 µM (active)
- AC50 [10]: 6.49 µM (active)

Compound: O=C(CN1CCc2ccccc21)NC(=O)NCc1ccco1
- AC50 [3]: 14.1 µM (inconclusive)
- AC50 [14]: 28.2 µM (inconclusive)

Compound: CCOP(=O)(OCC)c1cccc(OP(=O)(c2cccc([N+](=O)[O-])c2)c2cccc([N+](=O)[O-])c2)c1
- EC50 [1]: > 195 µM (not active)

Compound: O=C(c1cc2c(s1)-c1ccccc1OC2)N1CCN(c2ccccc2)CC1
- EC50 [1]: > 195 µM (not active)

Compound: NN=C(S)NC1CC2CC1C1C=CCC21 (stereo unspecified)
- EC50 [1]: > 195 µM (not active)

Compound: Cc1ccc(C(c2sc3ncnn3c2O)N2CC(C)CC(C)C2)cc1 (stereo unspecified)
- EC50 [1]: > 195 µM (not active)

Compound: FC(F)(F)c1ccccc1-c1nc(NCc2cccs2)c2ccccc2n1
- AC50 [3]: 25.1 µM (inconclusive)

Compound: CC1=C(C(=O)OCc2ccccc2)C(c2ccc([N+](=O)[O-])cc2)NC(=O)N1CCCCCC(=O)O (stereo unspecified)
- AC50 [3]: 20 µM (inconclusive)
- AC50 [14]: 10 µM (inconclusive)

Compound: CCCN1CCc2c(sc(NC(=O)c3ccc(S(=O)(=O)N(C)c4ccccc4)cc3)c2C(=O)NC)C1
- AC50 [10]: 3.26 µM (active)

Compound: C/C(CCN1CCCc2nc(C)c(C)cc21)=N\O[C@@H](C)c1cn([C@H](CO)Cc2ccccc2)nn1
- AC50 [3]: 3.98 µM (inconclusive)

Compound: Cc1ccc(Cl)cc1NC(=O)C1COc2ccccc2O1 (stereo unspecified)
- EC50 [1]: > 195 µM (not active)

Compound: Cc1csc(=O)n1CCC(=O)OCC(=O)NNC(=O)c1ccc(Cl)cc1
- IC50 [8]: > 66 µM (inactive)
- IC50 [9]: > 66 µM (inactive)

Compound: CCOC(=O)N1CCN(S(=O)(=O)c2ccc3c(c2)OCC(=O)N3)CC1
- EC50 [1]: > 195 µM (not active)

Compound: CCn1nc(CC(C)C)cc1C(=O)N1CCCC(Nc2ccc(OC)cc2)C1 (stereo unspecified)
- IC50 [15]: 121 µM (active)

Compound: Cc1cc(C)cc(NC(=O)Nc2ccc(-n3ccc(C(F)(F)F)n3)cc2)c1
- AC50 [10]: 1.61 µM (active)

Compound: O=C(CN1CCCCCC1)NN(Cc1ccccc1)c1ccccc1
- IC50 [15]: 301 µM (active)

Compound: CCOc1ccc(-n2c(SCC(=O)Nc3ccc(OC)cc3)nc3c(c2=O)SCC3)cc1
- AC50 [3]: 15.8 µM (inconclusive)
- AC50 [14]: 7.94 µM (inconclusive)
- AC50 [16]: 3.55 µM (inconclusive)

Compound: O=c1c(-c2cccs2)nc2cnc(N3CCNCC3)nc2n1CCc1ccccc1
- AC50 [3]: 25.1 µM (inconclusive)

Compound: CCN1C(=O)/C(=C/c2ccc(OC)c(OC)c2)N=C1SCC(=O)NCc1ccco1
- IC50 [8]: > 66 µM (inactive)
- IC50 [9]: > 66 µM (inactive)

Compound: O=C(/C=C/c1ccco1)NC(=S)Nc1ccc(N2CCCC2)cc1
- IC50 [8]: > 66 µM (inactive)
- IC50 [9]: > 66 µM (inactive)

Compound: CCCSc1nnc(CNS(=O)(=O)c2ccc(C)cc2)n1C
- EC50 [1]: > 195 µM (not active)

Compound: Fc1ccc(CNCCc2ccccc2)cc1
- IC50 [15]: 249 µM (active)

Compound: CC(=O)N1CCC[C@@]2(CCN(Cc3ccccc3)C2)C1
- AC50 [3]: 15.8 µM (inconclusive)
- AC50 [14]: 39.8 µM (inconclusive)

Compound: NC(=O)CC(NC(=O)Cc1ccc(Br)cc1)c1ccc(NCc2cc(F)ccc2F)c([N+](=O)[O-])c1 (stereo unspecified)
- AC50 [10]: 2.52 µM (active)

Compound: Cc1nc2cc(C(=O)O)ccc2s1
- IC50 [8]: > 66 µM (inactive)
- IC50 [9]: > 66 µM (inactive)

Compound: CS(=O)(=O)N(Cc1ccccc1)c1ccc(C(=O)NCCSCc2ccco2)cc1
- IC50 [8]: > 66 µM (inactive)
- IC50 [9]: > 66 µM (inactive)

Compound: COc1ccc(C(=O)N2CCN=C2SCc2cccnc2)cc1OC
- EC50 [1]: > 195 µM (not active)

Compound: Cc1cc(C(=O)NC2CCCN(Cc3ccc(Cl)cc3)C2)n(C)n1 (stereo unspecified)
- EC50 [1]: > 195 µM (not active)

Compound: CCOC(=O)CSC1=N/C(=C\c2cc(OC)c(OC)c(OC)c2)C(=O)N1C
- IC50 [8]: > 66 µM (inactive)
- IC50 [9]: > 66 µM (inactive)

Compound: COc1cc(OC)c(Cl)cc1N
- IC50 [15]: 35.9 µM (active)

Compound: Nc1ccc2c(c1)Oc1ccccc1C=C2
- AC50 [10]: > 195 µM (inactive)

Compound: CCN1C(=O)/C(=C2\SC(=S)N(c3c(C)n(C)n(-c4ccccc4)c3=O)C2=O)c2ccccc21
- IC50 [8]: > 66 µM (inactive)
- IC50 [9]: > 66 µM (inactive)

Compound: CCOc1cc(NC(=O)c2ccccn2)c(OCC)cc1NC(=O)c1ccccc1
- AC50 [10]: 24.4 µM (active)

Compound: O=C(NCCN1CCN(Cc2ccccc2)CC1)C1c2ccccc2C(=O)N2CCc3ccccc3C12 (stereo unspecified)
- AC50 [2]: 39.8 µM (inconclusive)
- AC50 [3]: 11.2 µM (inconclusive)

Compound: CCN(CCS(=O)(=O)c1ccc(Cl)cc1)C(=O)Nc1ccccc1
- EC50 [1]: > 195 µM (not active)

Compound: COc1cccc(OCC(O)CN2CCN(C)CC2)c1 (stereo unspecified)
- IC50 [15]: 74.6 µM (active)

Compound: Cc1ccc(S(=O)(=O)Nc2cc(C)c(O)c(Sc3nnc(C)[nH]3)c2)cc1
- IC50 [8]: > 66 µM (inactive)
- IC50 [9]: > 66 µM (inactive)

Compound: CC(C)NC(=O)N1CCCC2(CCN(C(=O)c3csnn3)CC2)C1
- AC50 [3]: 12.6 µM (inconclusive)
- AC50 [14]: 25.1 µM (inconclusive)

Compound: Cc1ccc(/C=C/C(=O)Nc2nn[nH]n2)o1
- IC50 [8]: > 66 µM (inactive)
- IC50 [9]: > 66 µM (inactive)
